{
  "source": "patent US7897611B2",
  "about": "“Pharmaceutical compositions and methods for relieving pain and treating central nervous system disorders” (Targacept, Inc., priority 2003, dated 2011)",
  "key": {"rats": {"system": "rats", "test": "Rat model of peripheral mononeuropathy (Bennett Model), paw pressure test", "type": "in vivo", "conditions": "for % Variation of nociceptive threshold, injured paw, vs vehicle-treated group / Nociceptive threshold, injured paw: Bennett model; for Nociceptive threshold, injured paw: paw pressure, mean ± SEM", "experimental": "A rat model of peripheral mononeuropathy (Bennett Model) was also used to evaluate the antihyperalgesic properties of the compounds.\nBriefly, peripheral mononeuropathy was induced by loose ligation of the sciatic nerve in anaesthetized rats (pentobarbital; 45 mg/kg by intraperitoneal route). Fourteen days later, the nociceptive threshold was evaluated using a mechanical nociceptive stimulation (paw pressure test). An increasing pressure was applied onto the hindpaw of the animal until the nociceptive reaction (vocalization or paw withdrawal) was reached. The pain threshold (grams of contact pressure) was measured in hindpaws, both ipsilateral (injured side) and contralateral (non-injured side) to the site of sciatic ligation injury, at 10 minutes after the oral treatment for the compounds (1 mg/kg) and 60 minutes after dosing for morphine (60 mg/kg) and vehicle.\nThe results were expressed as a) the nociceptive threshold (mean±SEM) in grams of contact pressure for the injured paw and for the non-injured paw in the vehicle-treated group, and b) the percentage of variation of the nociceptive threshold calculated from the mean value of the vehicle-treated group."}, "mice": {"system": "mice", "test": "Hot plate test in mice (nociceptive reaction latency)", "type": "in vivo", "conditions": "for Reaction Latency: hot plate 52°C, cutoff 30 seconds, mean ± SEM; for % variation of reaction latency: vs saline; for increase of nociceptive reaction latency vs vehicle-control: 60 mg/kg oral; for increase of nociceptive reaction latency vs vehicle controls: 1.0 mg/kg oral", "experimental": "The compounds of Example 1 (administered as the dihydrochloride salt of a 3:1 mixture of 3-(3-pyridinyl)-6-azabicyclo[3.2.1]oct-2-ene and 3-(3-pyridinyl)-6-azabicyclo[3.2.1]oct-3-ene) were evaluated in this Example using a “hot plate” test in mice. Briefly, the compounds of Example 1 (0.03, 0.1 and 0.3 mg free base/kg) were subcutaneously administered five minutes before the hot plate test. Morphine (10 mg/kg) was subcutaneously administered at 15 minutes before the test. Each mouse was placed on a metallic hot plate maintained at 52±0.2° C. The nociceptive reaction latency, characterized by licking reflex of the forepaws or by jumping off the hot plate, was recorded. The cutoff was set to 30 seconds.\nThe time course of the analgesic effect of the compounds of Example 1 (0.1, 0.3 and 1.0 mg free base/kg) was also assessed using the hot plate test following oral administration. Each dose of the compounds was administered to separate groups of animals at either 5, 15, 30 or 60 minutes prior to hot plate assessment. Morphine (60 mg/kg) and vehicle were also orally administered to separate groups of animals either 5, 15, 30, or 60 minutes before the test. Each mouse was placed on a metallic hot plate maintained at 52±0.2° C. The nociceptive reaction latency, characterized by licking reflex of the forepaws or by jumping off the hot plate, was recorded. The cutoff was set to 30 seconds."}, "[1]": {"conditions": "60 mg/kg oral, 60 minutes after dosing"}, "[2]": {"conditions": "hot plate, 15 minutes after dosing"}, "[3]": {"conditions": "1 mg/kg oral, 10 minutes after treatment"}},
  "data": [
    {"compound": "CN1CC[C@]23c4c5ccc(O)c4O[C@H]2[C@@H](O)C=C[C@H]3[C@H]1C5", "note": "[Morphine, reference compound]", "values": [
      {"measurement": "% Variation of nociceptive threshold, injured paw, vs vehicle-treated group", "setting": "rats; [1]", "value": 144, "unit": "%"},
      {"measurement": "Nociceptive threshold, injured paw", "setting": "rats; [1]", "value": "268.0 ± 18.9", "unit": "g"},
      {"measurement": "Reaction Latency", "setting": "mice; 10 mg/kg subcutaneous, 15 minutes before the test", "value": "29.4 ± 0.5", "unit": "s"},
      {"measurement": "% variation of reaction latency", "setting": "mice; hot plate, 10 mg/kg subcutaneous, 15 minutes before the test", "value": 163, "unit": "%"},
      {"measurement": "increase of nociceptive reaction latency vs vehicle-control", "setting": "mice; [2]", "value": 69, "unit": "%"},
      {"measurement": "increase of nociceptive reaction latency vs vehicle-control", "setting": "mice; hot plate, 30 minutes after dosing", "value": 47, "unit": "%"},
      {"measurement": "increase of nociceptive reaction latency vs vehicle-control", "setting": "mice; hot plate, 60 minutes after dosing", "value": 37, "unit": "%"}
    ]},
    {"compound": "C1=C(c2cccnc2)C2CNCC1C2.Cl.Cl", "note": "(stereo not drawn)", "values": [
      {"measurement": "melting point", "value": "192 to 195", "unit": "°C"}
    ]},
    {"compound": "3-(3-pyridinyl)-6-azabicyclo[3.2.1]oct-2-ene dihydrochloride and 3-(3-pyridinyl)-6-azabicyclo[3.2.1]oct-3-ene dihydrochloride [Example 1]", "values": [
      {"measurement": "behavioral side-effects following dosing", "setting": "rats; 1 mg/kg oral", "value": "No behavioral side-effects were observed"},
      {"measurement": "% Variation of nociceptive threshold, injured paw, vs vehicle-treated group", "setting": "rats; [3]", "value": 20, "unit": "%"},
      {"measurement": "Nociceptive threshold, injured paw", "setting": "rats; [3]", "value": "132.0 ± 9.0", "unit": "g"},
      {"measurement": "Reaction Latency", "setting": "mice; 0.03 mg free base/kg subcutaneous, five minutes before the test", "value": "19.3 ± 2.8", "unit": "s"},
      {"measurement": "Reaction Latency", "setting": "mice; 0.1 mg free base/kg subcutaneous, five minutes before the test", "value": "18.8 ± 2.2", "unit": "s"},
      {"measurement": "Reaction Latency", "setting": "mice; 0.3 mg free base/kg subcutaneous, five minutes before the test", "value": "28.2 ± 1.8", "unit": "s"},
      {"measurement": "% variation of reaction latency", "setting": "mice; hot plate, 0.03 mg/kg subcutaneous, five minutes before the test", "value": 72, "unit": "%"},
      {"measurement": "% variation of reaction latency", "setting": "mice; hot plate, 0.1 mg/kg subcutaneous, five minutes before the test", "value": 68, "unit": "%"},
      {"measurement": "% variation of reaction latency", "setting": "mice; hot plate, 0.3 mg/kg subcutaneous, five minutes before the test", "value": 152, "unit": "%"},
      {"measurement": "increase of nociceptive reaction latency vs vehicle controls", "setting": "mice; hot plate, 5 minutes after dosing", "value": 82, "unit": "%"},
      {"measurement": "increase of nociceptive reaction latency vs vehicle controls", "setting": "mice; [2]", "value": 97, "unit": "%"},
      {"measurement": "effect on nociceptive threshold vs vehicle-treated group", "setting": "mice; hot plate, lower oral doses (0.1 and 0.3 mg free base/kg), data not shown", "value": "failed to modify the nociceptive threshold"}
    ]},
    {"compound": "C1=C(c2cccnc2)CC2CNCC1C2.Cl.Cl", "note": "(stereo not drawn)", "values": [
      {"measurement": "melting point", "value": "219 to 221", "unit": "°C"}
    ]}
  ]
}
